Results reported in US8101648B2, “Hydroxybenzamide derivatives and their use as inhibitors of HSP90” (Astex Therapeutics, Ltd., priority 2005, dated 2012).
Where a name gives a salt, the structure may show the parent alone. Read-outs that look alike come from different tables or passages of the source.

Legend:
[1] = tested on: HCT116 cell line; assay: Anti-proliferative activity, Alamar Blue assay; type: cell-based, human
Description: The anti-proliferative activities of compounds of the invention can be determined by measuring the ability of the compounds to inhibition of cell growth in a number of cell lines such as the human colon cancer cell line HCT116. […] The method is based on the ability of viable cells to reduce resazurin to its fluorescent product resorufin. […] The number of viable cells is determined by Alamar Blue assay as before. Cell lines can be obtained from the ECACC (European Collection of cell Cultures).

[2] = target: T1, human Hsp90α N-terminal domain (Homo sapiens, UniProt P07900); assay: Isothermal titration calorimetry (ITC) binding; settings: 25 mM Tris, 100 mM NaCl, 1 mM MgCl2, 1 mM TCEP, 5% DMSO, pH 7.4
T1 construct: Cloning, expression, and purification of the Human Hsp90α N-terminal domain were performed according to published methods; made in house
Description: The ability of the compounds of the invention to bind to human Hsp90 proteins was determined using isothermal titration calorimetry.
Isothermal titration calorimetry (ITC) experiments were performed with a VP-ITC titration calorimeter (Microcal Inc., Northampton, Mass., USA). […] All solutions were filtered and degassed prior to a titration being carried out. The enthalpy change resulting from each injection of ligand was obtained through integration of the calorimetric signal. Data were analysed using Origin 7.0 (Microcal Software Inc., Northampton, Mass.). Heats of dilution were estimated using the final injections of each individual titration and subtracted before data fitting. Different ITC experimental formats were employed in order to obtain compound dissociation constants (Kd's) over a wide range of affinities. […] In this type of experiment the stoichiometry parameter (N) was locked at 1 for data fitting. […] For the majority of these experiments the protein concentration in the calorimetric cell was in the range […] and the ligand concentration in the injection syringe ranged from […].

[3] = HCT-116, human colon cancer cell line HCT116, 72 hours with compound, read-out: IC50

Row | SMILES | IC50 ([1]; Homo sapiens, HCT-116, 72 h) | IC50 [1, 3] | Kd [2]
1 | CC(C)c1cc(C(=O)N2Cc3ccccc3C2)c(O)cc1O [Example 5] | < 1000 nM |  | 
2 | CC(C)c1cc(C(=O)N2Cc3ccc(N4CCN(C(C)C)CC4)cc3C2)c(O)cc1O [Example 62, (2,4-Dihydroxy-5-isopropyl-phenyl)-[5-(4-isopropyl-piperazin-1-yl)-1,3-dihydro-isoindol-2-yl]-methanone] |  | < 1000 nM | < 100 nM
3 | CC(C)NCCOc1ccc2c(c1)CN(C(=O)c1cc(C(C)C)c(O)cc1O)C2 [Example 48, (2,4-dihydroxy-5-isopropyl-phenyl)-[5-(2-isopropylamino-ethoxy)-1,3-dihydro-isoindol-2-yl]-methanone] |  | < 1000 nM | < 100 nM
4 | COc1cc2c(cc1Cl)CN(C(=O)c1cc(C(C)C)c(O)cc1O)C2 [Example 33, (5-chloro-6-methoxy-1,3-dihydro-iso-indol-2-yl)-(2,4-dihydroxy-5-isopropyl-phenyl)-methanone] |  | < 1000 nM | < 100 nM
5 | O=C(c1cc(Br)c(O)cc1O)N1Cc2ccccc2C1 [Example 19, (5-Bromo-2,4-dihydroxy-phenyl)-(1,3-dihydro-isoindol-2-yl)-methanone] |  | < 1000 nM | 
6 | CC(C)c1cc(C(=O)N2CCc3ccccc3C2)c(O)cc1O [Example 38, (3,4-dihydro-1H-isoquinolin-2-yl)-(2,4-dihydroxy-5-isopropyl-phenyl)-methanone] |  | < 1000 nM | < 100 nM
7 | CC(C)c1cc(C(=O)N2Cc3ccc(N4CCC(N5CCOCC5)CC4)cc3C2)c(O)cc1O [Example 60, (2,4-Dihydroxy-5-isopropyl-phenyl)-[5-(4-morpholin-4-yl-piperidin-1-yl)-1,3-dihydro-isoindol-2-yl]-methanone] |  | < 1000 nM | < 100 nM
8 | COCCOCCOc1cccc2c1CN(C(=O)c1cc(C(C)C)c(O)cc1O)C2 [Example 21, (2,4-Dihydroxy-5-isopropyl-phenyl)-{4-[2-(2-methoxy-ethoxy)-ethoxy]-1,3-dihydro-isoindol-2-yl}methanone] |  | < 1000 nM | < 100 nM
9 | CC(C)c1cc(C(=O)N2Cc3ccc(C(=O)O)cc3C2)c(O)cc1O [Example 44, 2-(2,4-dihydroxy-5-isopropyl-benzoyl)-2,3-dihydro-1H-isoindole-5-carboxylic acid] |  |  | < 100 nM
10 | CC(C)c1cc(C(=O)N2Cc3ccc(N)cc3C2)c(O)cc1O [Example 39, (5-amino-1,3-dihydro-isoindol-2-yl)-(2,4-dihydroxy-5-isopropyl-phenyl)-methanone] |  | < 1000 nM | < 100 nM
11 | CN1CCN(c2ccc3c(c2)CN(C(=O)c2cc(Cl)c(O)cc2O)C3)CC1 [Example 75, (5-Chloro-2,4-dihydroxy-phenyl)-[5-(4-methyl-piperazin-1-yl)-1,3-dihydro-isoindol-2-yl]-methanone] |  | < 1000 nM | < 100 nM
12 | CC(C)c1cc(C(=O)N2Cc3ccc(N4CCN(CCO)CC4)cc3C2)c(O)cc1O [Example 59, (2,4-Dihydroxy-5-isopropyl-phenyl)-{5-[4-(2-hydroxy-ethyl)-piperazin-1-yl]-1,3-dihydro-isoindol-2-yl}-methanone] |  | < 1000 nM | < 100 nM
13 | CC(C)c1cc(C(=O)N2Cc3ccc(N4CCC(N5CCN(C)CC5)CC4)cc3C2)c(O)cc1O [Example 51, (2,4-dihydroxy-5-isopropyl-phenyl)-{5-[4-(4-methyl-piperazin-1-yl)-piperidin-1-yl]-1,3-dihydro-isoindol-2-yl}-methanone] |  | < 1000 nM | < 100 nM
14 | COC(=O)c1ccc2c(c1)CN(C(=O)c1cc(C(C)C)c(O)cc1O)C2 [Example 43, 2-(2,4-dihydroxy-5-isopropyl-benzoyl)-2,3-dihydro-1H-isoindole-5-carboxylic acid methyl ester] |  | < 1000 nM | < 100 nM
15 | CC(C)c1cc(C(=O)N2Cc3ccc(-c4ccc(N5CCNCC5)cc4)cc3C2)c(O)cc1O [Example 52, (2,4-dihydroxy-5-isopropyl-phenyl)-[5-(4-piperazin-1-yl-phenyl)-1,3-dihydro-isoindol-2-yl]-methanone] |  | < 1000 nM | < 1000 nM
16 | CC(C)c1cc(C(=O)N2Cc3ccc(CN4CCCCC4)cc3C2)c(O)cc1O [Example 72, (2,4-Dihydroxy-5-isopropyl-phenyl)-(5-piperidin-1-ylmethyl-1,3-dihydro-isoindol-2-yl)-methanone] |  | < 1000 nM | < 100 nM
17 | CC(C)c1cc(C(=O)N2Cc3ccc(C4(O)CCNCC4)cc3C2)c(O)cc1O [Example 73, (2,4-Dihydroxy-5-isopropyl-phenyl)-[5-(4-hydroxypiperidin-4-yl)-1,3-dihydro-isoindol-2-yl]-methanone] |  |  | < 100 nM
18 | CC(C)c1cc(C(=O)N2Cc3ccc(CN4CCN(C)CC4)cc3C2)c(O)cc1O [Example 55, (2,4-dihydroxy-5-isopropyl-phenyl)-[5-(4-methyl-piperazin-1-ylmethyl)-1,3-dihydro-isoindol-2-yl]-methanone] |  | < 1000 nM | < 100 nM
19 | CC(C)c1cc(C(=O)N2CC3CC2CO3)c(O)cc1O (stereo not shown) [Example 37, (2,4-dihydroxy-5-isopropyl-phenyl)-(2-oxa-5-aza-bicyclo[2.2.1]hept-5-yl)-methanone] |  | < 1000 nM | < 100 nM
20 | COc1ccc2c(c1)CN(C(=O)c1cc(C(C)C)c(O)cc1O)C2 [Example 40, (2,4-dihydroxy-5-isopropyl-phenyl)-(5-methoxy-1,3-dihydro-isoindol-2-yl)-methanone] |  | < 1000 nM | < 100 nM
21 | CC(C)c1cc(C(=O)N2Cc3cc(O)c(Cl)cc3C2)c(O)cc1O [Example 74, (5-chloro-6-hydroxy-1,3-dihydro-isoindol-dihydroxy-5-isopropyl-phenyl)-methanone] |  | < 1000 nM | < 100 nM
22 | CC(C)c1cc(C(=O)N2Cc3ccc(C(=O)N4CCNCC4)cc3C2)c(O)cc1O [Example 54, (2,4-dihydroxy-5-isopropyl-phenyl)-[5-(piperazine-1-carbonyl)-1,3-dihydro-isoindol-2-yl]-methanone hydrochloride] | < 1000 nM |  | < 100 nM
23 | CC(C)(C)c1cc(C(=O)N2CCc3ccccc3C2)ccc1O [Example 11, (3-tert-Butyl-4-hydroxy-phenyl)-(3,4-dihydro-1H-isoquinolin-2-yl)-methanone] |  |  | < 1000 nM
24 | CC(C)c1cc(C(=O)N2Cc3ccccc3C2)ccc1O [Example 10, (1,3-Dihydro-isoindol-2-yl)-(4-hydroxy-3-isopropyl-phenyl)-methanone] |  |  | < 100 nM
25 | CC(C)c1cc(C(=O)N2Cc3cccc(NC4CCNCC4)c3C2)c(O)cc1O [Example 67, (2,4-dihydroxy-5-isopropyl-phenyl)-[4-(piperidin-4-ylamino)-1,3-dihydro-isoindol-2-yl]-methanone] |  | < 1000 nM | < 100 nM
26 | CC(C)c1cc(C(=O)N2Cc3ccc(OCCNC(=O)CN4CCOCC4)cc3C2)c(O)cc1O [Example 49] |  | < 1000 nM | < 100 nM
